These results are taken from patent publication US20100004159A1, “SUBSTITUTED IMIDAZOLONE DERIVATIVES, PREPARATIONS AND USES” (GENFIT, priority 2006, published 2010).

In series [1] the test system is PPARs target genes. The experiment in a line: Expression of PPAR target genes by quantitative RT-PCR in db/db mouse tissue. In kind it is in vivo. Conditions: db/db mice, 50 mpk for 28 days. On the procedure:
Samples of hepatic tissue and adipose epididymal tissue were taken and frozen immediately in liquid nitrogen then conserved at −80° C. for later analysis.
Total RNA was extracted from liver fragments by using a NucleoSpine 96 RNA kit (Macherey Nagel, Hoerdt, France) according to the manufacturer's instructions.
The total RNA of the adipose tissue was extracted from tissue fragments with a method using guanidine thiocyanate. The tissues were briefly homogenized in 5 mL of a lysis buffer (guanidine thiocyanate 4M, EDTA pH8 10 mM, Tris HCl pH 7.5 50 mM and b-mercaptoethanol 1.4%) using polytron. To separate the layers, 500 μL of sodium acetate 2M pH4, 5 mL of phenol, and 2 mL of a mixture of chloroform/isoamylic alcohol (49:1) were added. After centrifugation, the aqueous layer was collected and the RNA was precipitated in the presence of isopropanol. After a second precipitation, the RNA was washed with ethanol 70°, dried, then suspended again in an volume of water free of RNase. A step of purification/DNase I treatment of the RNA was then carried out by using NucleoSpin® 96 RNA kit (Macherey-Nagel) according to the manufacturer's instructions. 1 μg of total RNA (quantified by using the Ribogreen RNA quantification kit (Molecular Probes)) was then reverse-transcribed into cDNA by means of a 1 hour reaction at 37° C. in a total volume of 20 μl containing a buffer 1× (Sigma), 1.5 mM of DTT, 0.18 mM, of dNTPs (Promega), 200 ng of pdN6 (Amersham), 30 U of RNase inhibitor (Sigma), and 1 μl of MMLV-RT (Sigma). The quantitative PCR experiments were carried out using the MyiQ Single-Color Real-Time PCR Detection System (Biorad, Marnes-la-Coquette, France) and were performed using the iQ SYBR Green Supermix kit according to the manufacturer's recommendations, in 96-well plates in 5 μl of a diluted reverse transcription solution at a hybridization temperature of 55° C. Primer pairs specific to the studied genes were used:
The quantity of emitted fluorescence is directly proportional to the quantity of cDNA present at the beginning of the reaction and amplified during the PCR. For each target studied, a range of solutions is performed with successive dilutions of a mixture made up of a few μl of different reverse-transcription solutions. The relative levels of expression of each target are thus determined by using efficiency curves obtained with the points relative to the range.
The expression levels of the genes of interest were then normalized, in the hepatic tissue with respect to the level expression of reference gene 36B4 (whose specific primers are: sense primer: 5′-[…]-3′ (SEQ ID NO: 15) and antisense primer: 5′-[…]-3′ (SEQ ID NO: 16)), and in the adipose tissue with respect to reference gene 18S (whose specific primers are: sense primer: 5′-[…]-3′ (SEQ ID NO: 17) and antisense primer: 5′-[…]-3′ (SEQ ID NO: 18)). The induction factor was then calculated for each sample. The higher the induction factor is, the more the compound promotes gene expression. The final result is represented as the average of the induction values within each experimental group.

Series [2] addresses T1, hPPARγ (Homo sapiens, UniProt P37231).
T1 construct: DNA fragments amplified by PCR and corresponding to the DEF domains of human PPARα, PPARγ, and PPARδ nuclear receptors; expressed in transfected cells; host or cells: COS-7
T1 sequence (P37231 238-503 limits assumed): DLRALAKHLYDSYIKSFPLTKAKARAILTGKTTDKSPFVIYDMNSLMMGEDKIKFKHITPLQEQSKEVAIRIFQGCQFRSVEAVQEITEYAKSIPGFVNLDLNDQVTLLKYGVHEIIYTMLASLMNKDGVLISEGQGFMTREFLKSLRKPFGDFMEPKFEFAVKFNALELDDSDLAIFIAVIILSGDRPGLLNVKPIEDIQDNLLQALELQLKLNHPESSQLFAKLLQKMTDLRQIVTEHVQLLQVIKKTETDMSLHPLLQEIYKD
Description: Gal4-hPPARγ transactivation in COS-7 cells (luciferase). Type of series: cell-based. Conditions: COS-7 cells transfected pGal4-hPPAR, 0.01 to 100 μM. On the procedure: (§1) The activation of PPARs was evaluated in vitro using a monkey kidney fibroblast line (COS-7) by measuring the transcriptional activity of chimeras made up of the DNA binding domain of the Gal4 transcription factor of yeast and of the binding domain to the ligand of the different PPARs. The compounds were tested at doses of between 0.01 and 100 μM on Gal4-PPARα, γ, and δ chimeras.
(§2) COS-7 cells came from ATCC (American type culture collection) and were cultivated in a DMEM medium supplemented with 10% (vol/vol) of fetal calf serum, 100 U/ml of penicillin (Gibco, Paisley, UK) and 2 mM of L-Glutamine (Gibco, Paisley, UK). The cells were incubated at 37° C. under humid atmosphere containing 5% CO2.
(§3) The plasmids Gal4(RE)_TkpGL3, pGal4-hPPARα, pGal4-hPPARγ, pGal4-hPPARδ and pGal4-φ have been described in the literature (Raspe E et al., 1999). The constructions pGal4-hPPARα, pGal4-hPPARγ, and pGal4-hPPARδ were obtained by cloning, in the pGal4-φ vector, DNA fragments amplified by PCR and corresponding to the DEF domains of human PPARα, PPARγ, and PPARδ nuclear receptors.
(§4) The COS-7 cells in suspension were transfected with 150 ng of DNA per well, with a pGal4-PPAR/Gal4(RE)_TkpGL3 ratio of 1/10, in presence of 10% fetal calf serum. The cells were then plated in 96-well plates (4×10^4 cells/well), then incubated for 24 hours at 37° C. Activation with the test compounds was performed for 24 hours at 37° C. in a medium without serum. At the end of the experiment, the cells were lysed and the luciferase activity was determined using the Steady-Lite™ HTS (Perkin Elmert) or the Steady Glow Luciferase kit (Promega), in accordance with the provider's recommendations.
(§5) The compounds according to the invention were tested at doses between 0,01 and 100 μM on the 3 PPAR isoforms. The results obtained are presented in detail under FIG. 1a.

In series [3] the target is T2, hPPARα (Homo sapiens, UniProt Q07869).
T2 construct: DNA fragments amplified by PCR and corresponding to the DEF domains of human PPARα, PPARγ, and PPARδ nuclear receptors; expressed in transfected cells; host or cells: COS-7
T2 sequence (Q07869 239-466 limits assumed): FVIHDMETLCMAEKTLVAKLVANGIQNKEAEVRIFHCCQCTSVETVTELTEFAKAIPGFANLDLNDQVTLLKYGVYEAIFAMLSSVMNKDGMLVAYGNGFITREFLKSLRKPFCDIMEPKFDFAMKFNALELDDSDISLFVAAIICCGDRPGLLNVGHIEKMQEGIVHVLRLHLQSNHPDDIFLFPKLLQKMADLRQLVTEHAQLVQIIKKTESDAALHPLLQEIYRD
The experiment in a line: Gal4-hPPARα transactivation in COS-7 cells (luciferase). Conditions: COS-7 cells transfected pGal4-hPPAR, 0.01 to 100 μM. Type of series: cell-based. On the procedure:
as §1, §2, §3, §4, §5

The target in series [4] is T3, angiotensin II AT1 receptor (Oryctolagus cuniculus, UniProt P34976).
T3 construct: tissue CEREP; host or cells: rabbit thoracic aorta rings
T3 sequence (P34976 1-359): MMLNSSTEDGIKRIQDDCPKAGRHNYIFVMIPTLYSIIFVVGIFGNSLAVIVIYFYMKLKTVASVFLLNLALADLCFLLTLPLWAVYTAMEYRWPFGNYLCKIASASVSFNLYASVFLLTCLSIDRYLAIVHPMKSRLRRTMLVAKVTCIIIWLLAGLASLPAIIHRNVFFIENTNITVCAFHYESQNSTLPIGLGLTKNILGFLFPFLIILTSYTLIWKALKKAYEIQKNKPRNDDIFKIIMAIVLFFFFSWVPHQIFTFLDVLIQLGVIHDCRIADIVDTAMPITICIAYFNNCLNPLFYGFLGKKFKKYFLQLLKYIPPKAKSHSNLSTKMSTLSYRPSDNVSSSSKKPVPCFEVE
The experiment in a line: Ex vivo agonist/antagonist activity on isolated rabbit thoracic aorta rings. The note with it: 0.3, 3 and 30 μM; for agonist activity (contraction): non-treated rabbit thoracic aorta; for antagonist activity (inhibition of contractile response to angiotensin II): rabbit thoracic aorta previously exposed to angiotensin II 0.003 μM. On the procedure:
This activity is either agonist or antagonist and was evaluated ex vivo on isolated organs. Agonist activity corresponds to tissue contraction. Antagonist activity corresponds to tissue dilatation.
The ex vivo test was performed at the CEREP (Celle L'Evescault, France (86)) following a protocol based on Pendleton et al. (Pendleton R G et al.,1989). Rabbit thoracic aorta rings with intact endothelium were suspended in baths for organs containing an oxygenated physiologic saline solution (95% O2 and 5% CO2) and preheated (37° C.) having the following composition (mM): NaCl 118.0, KCl 4.7, MgSO4 1.2, CaCl2 2.5, KH2PO4 1.2, NaHCO3 25.0, and glucose 11.0 (pH 7.4).
Benextramine (1 μM), propranolol (1 μM), pyrilamine (1 μM), atropine (1 μM), methysergide (1 μM), and captopril (0.1 μM) were also used in all carried out experiments to block respectively α-adrenergic, β-adrenergic, histaminic H1 muscarinic, and 5-HT2 receptors as well as to prevent peptide degradation. The tissues were bound to a force sensor suitable for isometric tension recording. They were stretched to a resting tension of 4 g, then stabilized for 60 minutes. During the stabilization, they were washed several times and the tension was adjusted. The experiments were carried out using semi-automatic systems of isolated organs with eight organ baths and multichannel data acquisition.
The tissues were exposed to a submaximal concentration of the reference agonist (angiotensin II at 0.003 μM) to verify the response and obtain a control contractile response.
After several washing operations and after having recovered the basal tone, the tissues were exposed to increasing concentrations of compounds according to the invention or the same agonist. The different concentrations were added cumulatively, each one was left in contact with the tissues until a stable response was reached and for a maximum of 30 minutes. If an agonist type response (contraction) was registered, the reference antagonist (Saralasine at 0.01 μM) was tested regarding the highest concentration of the compounds according to the invention to confirm the involvement of the AT1 receptors in the response.
After stabilization of the contraction induced by angiotensin II, increasing concentrations of compounds according to the invention or of the reference antagonist (Saralasine) were added cumulatively. Each concentration was left in contact with the tissues until a stable response was observed and for a maximum of 30 minutes.
The inhibiting effect of the compounds according to the invention on the contraction induced by the angiotensin 11 indicates antagonist activity on AT1 receptors.

The compound `CCCCC1=NC2(CCCC2)C(=O)N1Cc1ccc(-c2ccc(OC(C)(C)C(=O)O)cc2)cc1` [Compound 2, 2-butyl-1-[(4′-((1-carboxy-1,1-dimethylmethyl)oxy)biphenyl-4-yl)methyl]-4-spirocyclopentyl-1H-imidazol-5(4H)-one] yielded a melting point of 180 °C. In series [1], the “hepatic expression of the gene coding for CPT1 b” value was “significant increase” and the “hepatic expression of the gene coding for PDK-4” value is “significant increase”. In series [1] (liver), the “expression of the gene coding for ApoCIII” value is on record as “significant decrease” and the “expression of the gene coding for FBb” value is on record as “significant decrease”.

In the case of `CCCCC1=NC2(CCCCC2)C(=O)N1Cc1ccc(-c2ccc(OC(C)(C)C(=O)O)cc2)cc1` [Compound 25, 2-butyl-1-[(4′-((1-carboxy-1,1-dimethylmethyl)oxy)biphenyl-4-yl)methyl]-4-spirocyclohexyl-1H-imidazol-5(4H)-one], the melting point fell in the range of 75 to 77 °C. Besides, the “activation of hPPARγ (luciferase activity)” value in series [2] is listed as “activates only hPPARα”. The “activation of hPPARα (luciferase activity)” value in series [3] is on record as “activates only hPPARα”.

As for `CCCCC1=NC2(CCCCC2)C(=O)N1Cc1ccc(-c2cccc(OC(C)C(=O)O)c2)cc1` (centres unmarked) [Compound 53], the melting point amounted to 85 °C. Moreover, in series [4], the “agonist activity (contraction)” value is “do not induce contraction” and the “antagonist activity (inhibition of contractile response to angiotensin II)” value is “inhibiting effect of the contractile response of the reference agonist”.

Turning to `CCCCC1=NC2(CCCC2)C(=O)N1Cc1ccc(-c2cc(OC(C)(C)C(=O)O)ccc2CC)cc1` [Compound 80, 2-butyl-1-[(3′-((1-carboxy-1,1-dimethylmethyl)oxy)-6′-ethyl-biphenyl-4-yl)methyl]-4-spirocyclopentyl-1H-imidazol-5(4H)-one], the melting point is 143 °C. Moreover, in series [4], the “agonist activity (contraction)” value is “do not induce contraction” and the “antagonist activity (inhibition of contractile response to angiotensin II)” value is “inhibiting effect of the contractile response of the reference agonist”.

Usually melting point stands for the temperature, or range, at which the solid turns liquid.
